Data as given in patent publication US20130252821A1, “METHODS AND COMPOSITIONS FOR THE TREATMENT AND DIAGNOSIS OF DISEASES CHARACTERIZED BY VASCULAR LEAK, HYPOTENSION, OR A PROCOAGULANT STATE” (Beth Israel Deaconess Medical Center, Inc., priority 2005, published 2013).

System: VEGF
Experiment: Serial free VEGF levels in patients on HD IL-2
Type: in vivo, human
Conditions: four patients, single bevacizumab infusion two weeks prior to HD IL-2
Source text: Over a 6 month period at Beth Israel Deaconess Medical Center we prospectively collected discarded serum and plasma samples from oncology patients receiving high dose IL-2. […] After detailing these promising results, we then collected bloods before IL-2 infusion and with each successive days morning labs. Whenever possible, we also obtained discarded blood from all follow up outpatient appointments. All identifying information was removed and data was encoded to protect patient privacy. Clinical data was collected on each patient by chart review. This study was approved by the institutional IRB.

## bevacizumab: a neutralizing antibody to VEGF
  free VEGF levels: low throughout protocol
